Experimental data reported in ChEMBL document CHEMBL1201861, “Genomics of Drug Sensitity in Cancer screening data, Wellcome Trust Sanger Institute”.
Values joined by “and” are separate entries in the source; they are usually repeats but may differ in a detail not shown here. Equal values may be shown once.

Key:
Experiment in all cases: cells
LS-513 = format: functional, cell-based, Homo sapiens
Description: SANGER: Inhibition of human LS-513 cell growth in a cell viability assay.

LU-99A = format: functional, cell-based, Homo sapiens;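 also: growth inhibition of LU-99A cells, read out with a cell viability assay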
Description: SANGER: Inhibition of human LU-99A cell growth in a cell viability assay.

8305C = format: functional, cell-based, Homo sapiens
Description: SANGER: Inhibition of human 8305C cell growth in a cell viability assay.

HuO-3N1 = format: functional, cell-based, Homo sapiens;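 also: cell viability readout used to measure how strongly compounds suppress proliferation of human HuO-3N1 cells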
Description: SANGER: Inhibition of human HuO-3N1 cell growth in a cell viability assay.

NCI-H520 = format: functional, cell-based, Homo sapiens;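 also: growth inhibition of NCI-H520 cells, measured by a cell viability assay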
Description: SANGER: Inhibition of human NCI-H520 cell growth in a cell viability assay.

HT-3 = format: functional, cell-based, Homo sapiens;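 also: growth inhibition measured with a cell viability readout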
Description: SANGER: Inhibition of human HT-3 cell growth in a cell viability assay.

DB = format: functional, cell-based; conditions: Homo sapiens
Description: SANGER: Inhibition of human DB cell growth in a cell viability assay.

NB5 = format: functional, cell-based, Homo sapiens;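 also: growth inhibition of NB5 cells, read out as cell viability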
Description: SANGER: Inhibition of human NB5 cell growth in a cell viability assay.

KYSE-410 = format: functional, cell-based, Homo sapiens;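 also: growth inhibition of KYSE-410 cells, measured through a cell viability readout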
Description: SANGER: Inhibition of human KYSE-410 cell growth in a cell viability assay.

ETK-1 = format: functional, cell-based, Homo sapiens;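 also: growth inhibition of human ETK-1 cells, read out with a cell viability assay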
Description: SANGER: Inhibition of human ETK-1 cell growth in a cell viability assay.

CAL-51 = format: functional, cell-based, Homo sapiens;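 also: human CAL-51 cell line, growth inhibition read out via a cell viability assay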
Description: SANGER: Inhibition of human CAL-51 cell growth in a cell viability assay.

CAL-62 = format: functional, cell-based, Homo sapiens;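 also: growth inhibition of CAL-62 cells, read out with a cell viability assay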
Description: SANGER: Inhibition of human CAL-62 cell growth in a cell viability assay.

SW48 = format: functional, cell-based, Homo sapiens;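 also: growth inhibition of SW48 cells, read out with a cell viability assay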
Description: SANGER: Inhibition of human SW48 cell growth in a cell viability assay.

SNU-449 = format: functional, cell-based, Homo sapiens
Description: SANGER: Inhibition of human SNU-449 cell growth in a cell viability assay.

COLO-679 = format: functional, cell-based, Homo sapiens
Description: SANGER: Inhibition of human COLO-679 cell growth in a cell viability assay.

CAL-27 = format: functional, cell-based, Homo sapiens;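 also: Viability-based readout, IC50 reflecting inhibition of CAL-27 cell growth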
Description: SANGER: Inhibition of human CAL-27 cell growth in a cell viability assay.

BB49-HNC = format: functional, cell-based, Homo sapiens;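 also: cell viability assay read-out, reported as inhibition of BB49-HNC cell growth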
Description: SANGER: Inhibition of human BB49-HNC cell growth in a cell viability assay.

C3A = format: functional, cell-based, Homo sapiens;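 also: growth inhibition of C3A human cells, quantified with a cell viability readout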
Description: SANGER: Inhibition of human C3A cell growth in a cell viability assay.

MHH-PREB-1 = format: functional, cell-based; conditions: Homo sapiens;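 also: cell viability assay measuring inhibition of proliferation of human MHH-PREB-1 cells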
Description: SANGER: Inhibition of human MHH-PREB-1 cell growth in a cell viability assay.

ES8 = format: functional, cell-based, Homo sapiens;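 also: growth inhibition of human ES8 cells, read out with a cell viability assay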
Description: SANGER: Inhibition of human ES8 cell growth in a cell viability assay.

LC-2-ad = format: functional, cell-based, Homo sapiens;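 also: growth inhibition of human LC-2-ad cells, read out with a cell viability assay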
Description: SANGER: Inhibition of human LC-2-ad cell growth in a cell viability assay.

IST-MEL1 = format: functional, cell-based, Homo sapiens;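 also: growth inhibition of the cell line, read out with a cell viability assay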
Description: SANGER: Inhibition of human IST-MEL1 cell growth in a cell viability assay.

MHH-ES-1 = format: functional, cell-based, Homo sapiens;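 also: cell growth inhibition measured by a cell viability assay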
Description: SANGER: Inhibition of human MHH-ES-1 cell growth in a cell viability assay.

C-33-A = format: functional, cell-based, Homo sapiens;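 also: cell viability assay measuring growth inhibition of C-33-A cells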
Description: SANGER: Inhibition of human C-33-A cell growth in a cell viability assay.

SW-620 = format: functional, cell-based, Homo sapiens;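 also: growth inhibition of human SW-620 cells, measured by a cell viability assay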
Description: SANGER: Inhibition of human SW620 cell growth in a cell viability assay.

KNS-42 = format: functional, cell-based, Homo sapiens;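 also: growth inhibition of KNS-42 cells, read out with a cell viability assay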
Description: SANGER: Inhibition of human KNS-42 cell growth in a cell viability assay.

A498 = format: functional, cell-based, Homo sapiens;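 also: growth inhibition of human A498 cells, read out with a cell viability assay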
Description: SANGER: Inhibition of human A498 cell growth in a cell viability assay.

CHP-212 = format: functional, cell-based, Homo sapiens
Description: SANGER: Inhibition of human CHP-212 cell growth in a cell viability assay.

NCI-H2126 = format: functional, cell-based, Homo sapiens;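 also: growth inhibition of the cancer cell line, determined with a cell viability readout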
Description: SANGER: Inhibition of human NCI-H2126 cell growth in a cell viability assay.

EW-13 = format: functional, cell-based; conditions: Homo sapiens;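 also: growth inhibition of EW-13 cells, read out with a cell viability assay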
Description: SANGER: Inhibition of human EW-13 cell growth in a cell viability assay.

NCI-H526 = format: functional, cell-based; conditions: Homo sapiens;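 also: growth inhibition of the human NCI-H526 cell line, measured by a cell viability assay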
Description: SANGER: Inhibition of human NCI-H526 cell growth in a cell viability assay.

ES4 = format: functional, cell-based, Homo sapiens;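 also: growth inhibition of human ES4 cells, read out by a cell viability assay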
Description: SANGER: Inhibition of human ES4 cell growth in a cell viability assay.

MZ1-PC = format: functional, cell-based, Homo sapiens;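 also: cell viability assay measuring growth inhibition of human MZ1-PC cells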
Description: SANGER: Inhibition of human MZ1-PC cell growth in a cell viability assay.

MKN-28 = format: functional, cell-based, Homo sapiens;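 also: cell viability assay read-out, IC50 reflects suppression of growth of human MKN-28 cells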
KYSE-70 cell line = format: functional, cell-based, Homo sapiens;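 also: cell viability assay read-out, with IC50 expressing suppression of KYSE-70 cell growth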
Description: SANGER: Inhibition of human KYSE-70 cell growth in a cell viability assay.

LOX IMVI = format: functional, cell-based; conditions: Homo sapiens
Description: SANGER: Inhibition of human LOXIMVI cell growth in a cell viability assay.

KLE = format: functional, cell-based, Homo sapiens;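 also: growth inhibition of human KLE cells, read out with a cell viability assay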
Description: SANGER: Inhibition of human KLE cell growth in a cell viability assay.

BB30-HNC = format: functional, cell-based, Homo sapiens;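 also: growth inhibition of the cultured cell line, read out by a cell viability assay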
Description: SANGER: Inhibition of human BB30-HNC cell growth in a cell viability assay.

KE-37 = format: functional, cell-based; conditions: Homo sapiens;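 also: growth inhibition of KE-37 cells, read out with a cell viability assay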
BHT-101 = format: functional, cell-based, Homo sapiens
SBC-1 = format: functional, cell-based; conditions: Homo sapiens;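 also: cell viability assay measuring growth inhibition of the SBC-1 cell line, IC50 being the concentration that halves growth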
Description: SANGER: Inhibition of human SBC-1 cell growth in a cell viability assay.

DEL = format: functional, cell-based; conditions: Homo sapiens;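 also: growth inhibition of the human DEL cell line, read out with a cell viability assay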
Description: SANGER: Inhibition of human DEL cell growth in a cell viability assay.

Detroit 562 = format: functional, cell-based, Homo sapiens;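 also: growth inhibition of human Detroit 562 cells, read out by a cell viability assay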
SK-MEL-24 = format: functional, cell-based; conditions: Homo sapiens;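 also: growth inhibition read out by a cell viability assay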
Description: SANGER: Inhibition of human SK-MEL-24 cell growth in a cell viability assay.

NCI-H1693 = format: functional, cell-based, Homo sapiens;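 also: growth inhibition of the human cell line, read out with a cell viability assay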
Description: SANGER: Inhibition of human NCI-H1693 cell growth in a cell viability assay.

MEG-01 = format: functional, cell-based; conditions: Homo sapiens;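 also: growth inhibition of MEG-01 cells, read out by a cell viability assay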
Description: SANGER: Inhibition of human MEG-01 cell growth in a cell viability assay.

VM-CUB-1 = format: functional, cell-based; conditions: Homo sapiens;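 also: cell viability assay measuring growth inhibition of the human VM-CUB-1 cell line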
Description: SANGER: Inhibition of human VM-CUB-1 cell growth in a cell viability assay.

SW13 = format: functional, cell-based, Homo sapiens;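 also: IC50 is inhibition of SW13 cell growth, read out with a cell viability assay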
Description: SANGER: Inhibition of human SW13 cell growth in a cell viability assay.

T98G = format: functional, cell-based, Homo sapiens;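 also: growth inhibition of T98G cells, read out by a cell viability assay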
Description: SANGER: Inhibition of human T98G cell growth in a cell viability assay.

A2780 = format: functional, cell-based, Homo sapiens;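 also: growth inhibition of A2780 cells, read out with a cell viability assay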
Description: SANGER: Inhibition of human A2780 cell growth in a cell viability assay.

HO-1-N-1 = format: functional, cell-based, Homo sapiens;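 also: growth inhibition of human HO-1-N-1 cells, read out with a cell viability assay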
Description: SANGER: Inhibition of human HO-1-N-1 cell growth in a cell viability assay.

YKG-1 = format: functional, cell-based, Homo sapiens;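 also: cell growth inhibition, read out with a viability assay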
Description: SANGER: Inhibition of human YKG-1 cell growth in a cell viability assay.

Measured: IC50

CN(C)C/C=C/C(=O)Nc1cc2c(Nc3ccc(F)c(Cl)c3)ncnc2cc1O[C@H]1CCOC1 [AFATINIB]
> 0.5 µM: LS-513; Homo sapiens, LS-513 | LU-99A; Homo sapiens, LU-99A | 8305C; Homo sapiens, 8305C | HuO-3N1; Homo sapiens, HuO-3N1 | NCI-H520; Homo sapiens, NCI-H520 | HT-3; Homo sapiens, HT-3 | DB | NB5; Homo sapiens, NB5 | KYSE-410; Homo sapiens, KYSE-410 | ETK-1; Homo sapiens, ETK-1 | CAL-51; Homo sapiens, CAL-51 | CAL-62; Homo sapiens, CAL-62 | SW48; Homo sapiens, SW48 | SNU-449; Homo sapiens, SNU-449 | COLO-679; Homo sapiens, COLO-679 | BB49-HNC; Homo sapiens, BB49-HNC | C3A; Homo sapiens, C3A | MHH-PREB-1 | ES8; Homo sapiens, ES8 | LC-2-ad; Homo sapiens, LC-2-ad | IST-MEL1; Homo sapiens, IST-MEL1 | MHH-ES-1; Homo sapiens, MHH-ES-1 | C-33-A; Homo sapiens, C-33-A | SW-620; Homo sapiens, SW-620 | KNS-42; Homo sapiens, KNS-42 | CHP-212; Homo sapiens, CHP-212 | NCI-H2126; Homo sapiens, NCI-H2126 | EW-13 | ES4; Homo sapiens, ES4 | MZ1-PC; Homo sapiens, MZ1-PC | MKN-28; Homo sapiens, MKN-28 | KYSE-70 cell line; Homo sapiens, KYSE-70 | LOX IMVI | KLE; Homo sapiens, KLE | KE-37 | BHT-101; Homo sapiens, BHT-101 | DEL | Detroit 562; Homo sapiens, Detroit 562 | SK-MEL-24 | NCI-H1693; Homo sapiens, NCI-H1693 | MEG-01 | VM-CUB-1 | T98G; Homo sapiens, T98G | A2780; Homo sapiens, A2780 | YKG-1; Homo sapiens, YKG-1
0.0782 µM: NCI-H526
0.407 µM: A498; Homo sapiens, A498
0.162 µM: SW13; Homo sapiens, SW13
0.166 µM: BB30-HNC; Homo sapiens, BB30-HNC
0.279 µM: HO-1-N-1; Homo sapiens, HO-1-N-1
0.19 µM: SBC-1
0.176 µM: CAL-27; Homo sapiens, CAL-27

Cc1cc([C@@H](C)Nc2ccccc2C(=O)O)c2nc(N3CCOCC3)cc(=O)n2c1 [AZD-6482]
> 5.12 µM and 0.73 µM: BB49-HNC; bb49-hnc
2.52 µM and > 5.12 µM: IST-MEL1; ist-mel1
> 5.12 µM and 2.56 µM: A2780; a2780
1.05 µM and 2.13 µM: Detroit 562; detroit 562
4.89 µM: BB30-HNC; Homo sapiens, BB30-HNC
> 5.12 µM and 1.16 µM: BHT-101; bht-101
4.21 µM: NCI-H520; Homo sapiens, NCI-H520
> 5.12 µM: LS-513; Homo sapiens, LS-513 | LS-513; ls-513 | LU-99A; lu-99a | 8305C; 8305c | HuO-3N1; Homo sapiens, HuO-3N1 | HuO-3N1; huo-3n1 | NCI-H520; nci-h520 | HT-3; ht-3 | DB | NB5; nb5 | KYSE-410; kyse-410 | ETK-1; etk-1 | CAL-51; cal-51 | CAL-62; cal-62 | SW48; Homo sapiens, SW48 | SW48; sw48 | SNU-449; Homo sapiens, SNU-449 | SNU-449; snu-449 | COLO-679; Homo sapiens, COLO-679 | COLO-679; colo-679 | CAL-27; Homo sapiens, CAL-27 | CAL-27; cal-27 | C3A; c3a | MHH-PREB-1 | ES8; es8 | LC-2-ad; lc-2-ad | MHH-ES-1; mhh-es-1 | C-33-A; c-33-a | SW-620; sw-620 | KNS-42; kns-42 | CHP-212; chp-212 | NCI-H2126; nci-h2126 | EW-13 | NCI-H526 | ES4; es4 | MZ1-PC; mz1-pc | MKN-28; mkn-28 | KYSE-70 cell line; kyse-70 | LOX IMVI | KLE; kle | BB30-HNC; bb30-hnc | KE-37 | SBC-1 | DEL | SK-MEL-24 | NCI-H1693; nci-h1693 | MEG-01 | VM-CUB-1 | SW13; Homo sapiens, SW13 | SW13; sw13 | T98G; Homo sapiens, T98G | T98G; t98g | HO-1-N-1; ho-1-n-1 | YKG-1; Homo sapiens, YKG-1 | YKG-1; ykg-1
0.118 µM and 0.459 µM: A498; a498
